Reference: patent US7045536B2, “Compound having anti-viral activity” (Industrial Technology Research Institute, priority 2003, dated 2006)

Tests used:
enterovirus type 71 = assay: Neutralization test; type: cell-based, enterovirus 71/Tw/2231/98; conditions: concentration of 10 mg/ml; RD cells, crystal violet OD570nm
Method: In this embodiment, enterovirus 71/Tw/2231/98 obtained from Virology Lab of Chang Gung Memorial Hospital is diluted with fetal bovine serum free culture medium. Culture the RD cells in DMEM containing 10% fetal bovine serum. When the cells are 90% cultured, wash with 1×PBC once and add the aforesaid diluted virus fluid into the culture medium. Place the medium in the 5% CO2, 35° C. incubator for inoculation for one hour and then add DMEM containing 2% fetal bovine serum. Place the medium in 5% CO2, 35° C. incubator. When over 95% of the cells become round and drop off, collect the supernatant. After centrifuge, freezing and thawing, refrigerate the virus supernatant under −80° C.
In this embodiment, cultured cells from Embodiment 3 are cultured in 96-well plate. After mixing fixed-quantity of virus fluid with the tested compound, add in culture medium for inoculation for one hour, and then add in DMEM containing 2% fetal bovine serum. Place the medium in 5% CO2, 35° C. incubator for 3–4 days. To read the test result, add 5% formalin to fixate for 1–2 hours and dye with 0.1% crystal violet for 2–3 minutes. Rinse with water and measure OD570nm values.

RD cells = assay: Toxicity test; type: cell-based; conditions: 3-4 days, crystal violet OD570nm
Method: In this embodiment, rhabdomyosarcoma (RD) cells obtained from the Virology Lab of Chang Gung Memorial Hospital are cultured in DMEM (Gibco) containing 10% fetal bovine serum and placed in 5% CO2, 37° C. incubator. In successive culture, the cells are rinsed twice with 1× PBS and then added with proper amount of 0.25% trypsin-EDTA (Gibco) for cell treatment. After the cells drop off from the surface of culture dish, add DMBM medium containing 10% fetal bovine serum to disperse the cells evenly in the culture dishes. Place the dishes into 5% CO2, 37° C. incubator to continue the culturing.
In this embodiment, cultured cells from Embodiment 3 are cultured in 96-well plate. After the cells are mixed with the tested compound for one hour, add DMEM containing 2% fetal bovine serum, and place the medium in 5% CO2, 35° C. incubator for 3–4 days. To read the test result, add 5% formalin to fixate for 1–2 hours and dye with 0.1% crystal violet (J. T. Baker) for 2–3 minutes. Rinse with water and measure OD570nm values.

Compound | inhibitory effect on enterovirus type 71 (enterovirus type 71) | LC50 (RD cells)
C[n+]1ccn(CC(O)Cn2cc[n+](C)c2)c1.[Br-].[Br-] [dibromo 1,1′-glyceryl-bis (3-methyl-1H-imidazole)] | 32% | 8400 µg/mL
OC(C[n+]1ccccc1)C[n+]1ccccc1.[Br-].[Br-] [dibromo 1,1′-glyceryl-bispyridine] | 30% | 9200 µg/mL
